The values below come from ChEMBL document CHEMBL3507680, “University of Dundee, Gates Library screen for HepG2 cell viability”.

This data set in a line: Human HepG2 cell viability assay in 384 well format. The following applies: HepG2 cells, read-out: Inhibition. It counts as toxicity, cell-based. More on the design: dose 125 nL, time 70.5 hour; concentration not given beside the values.
As to `O=C(CCC(=O)N1CCOCC1c1ccccc1)c1cccs1` (centres undefined), the cytotoxicity at 70.5 h was -2.2%.

As to `Cc1cnn(CC2CN(CC(=O)Nc3sccc3C#N)CCO2)c1` (centres undefined), the cytotoxicity at 70.5 h is -0.129%.

As to `O=C(Nc1cccc(C(F)F)c1)N[C@@H]1C=C[C@H](CO)C1`, the cytotoxicity at 70.5 h came to 2.83%.

With `COc1ccc(-c2cc(C3(O)CCCC3)on2)cc1`, the cytotoxicity at 70.5 h turned out to be 1.51%.

As to `COC(=O)C(O)C1CCN(CCc2ccccn2)CC1` (centres undefined), the cytotoxicity at 70.5 h was -1.57%.

Regarding `CC(C)(C)c1ncc(C(=O)NCCNS(C)(=O)=O)s1`, the cytotoxicity at 70.5 h was -7.98%.

As to `Cc1cccc(C)c1NC(=O)c1n[nH]c(-n2cnnc2)n1`, the cytotoxicity at 70.5 h is -13.4%.

For the compound `COc1ccc(C[C@H]2CN(c3cc(OC)ncn3)CC[C@H]2OC)cc1`, the cytotoxicity at 70.5 h came out at 11.6%.

As for `O=C(CCc1nc(Cl)n[nH]1)N1C[C@@H](CN2CCCCC2)[C@@H](CO)C1`, the cytotoxicity at 70.5 h is -6.93%.

Regarding `COc1cc(C)ccc1S(=O)(=O)N[C@H]1CN(C(C)=O)C[C@@H]1C1CC1`, the cytotoxicity at 70.5 h turned out to be 18.1%.

On to `CCn1cnnc1CCNCc1c[nH]nc1-c1ccc(F)cc1`, for which the cytotoxicity at 70.5 h was found to be 5.79%.

On to `CN(c1ccncn1)C1CC2(CCN(C(=O)c3cccn3C)C2)C1` (centres undefined), for which the cytotoxicity at 70.5 h is -0.487%.

`Cc1cnc(NC(=O)c2csc(NCC(C)C)n2)s1`: the cytotoxicity at 70.5 h was found to be 9.3%.

`CCOCc1nc(N2CCCC2)sc1C(=O)NCCC(=O)OCC`: the cytotoxicity at 70.5 h is -6%.

For `Cc1ccc(CN2CCC3(CC2)C(c2ccccc2)CC(=O)N3C)o1` (centres undefined), the cytotoxicity at 70.5 h stood at 0.715%.

As to `CC1CN(C)CCN1C(=O)c1cnn(-c2cccc(Cl)c2)c1` (centres undefined), the cytotoxicity at 70.5 h was -9.03%.

On to `O=C(CCC1CCCO1)NCc1ccc(Br)cc1F` (centres undefined), for which the cytotoxicity at 70.5 h is 12.7%.

On to `O=C(Cc1csc(-c2ccco2)n1)N1CCCC1Cn1cccn1` (centres undefined), for which the cytotoxicity at 70.5 h is -7.55%.

On to `O=C(NCCN1CCCS1(=O)=O)c1scnc1Cl`, for which the cytotoxicity at 70.5 h was -24.6%.

For `CCS(=O)(=O)CCN(CC1CCCO1)C1CCCC1` (centres undefined), the cytotoxicity at 70.5 h was -2.46%.

For `O=C(CCc1cc2n(n1)CCCNC2)N1CCSCC1`, the cytotoxicity at 70.5 h was -9.8%.

`CN(C)C(=O)c1ccccc1NCCCOc1cccc(C#N)c1`: the cytotoxicity at 70.5 h came out at 13.1%.

As for `COCCN1CCN(Cc2ccncc2)[C@H]2CS(=O)(=O)C[C@H]21`, the cytotoxicity at 70.5 h was -6.81%.

Regarding `CCS(=O)(=O)N1CCC2(CC1)CC(OCC1CC1)CO2` (centres undefined), the cytotoxicity at 70.5 h was -7.89%.

With `CS(=O)(=O)N[C@@H]1CCO[C@]2(CCN(C(=O)c3cscn3)C2)C1`, the cytotoxicity at 70.5 h was -7.64%.

Consider `CCN1CCN(S(=O)(=O)c2c[nH]c(C(C)C)n2)c2ccccc21`, for which the cytotoxicity at 70.5 h is -5.4%.

As to `Cc1cnn(CC(C)NCc2cccc(C#N)c2)c1` (centres undefined), the cytotoxicity at 70.5 h is 2.17%.

With `CS(=O)(=O)c1ccc(CNC(=O)NCc2cc[nH]n2)cc1`, the cytotoxicity at 70.5 h was -12.3%.

For the compound `CC(C)c1noc(CN(Cc2ccc(F)cc2)C2CC2)n1`, the cytotoxicity at 70.5 h is -8.41%.

As for `Cc1cc(CN2CCc3cncnc3C2)on1`, the cytotoxicity at 70.5 h was determined as 9.54%.

Turning to `CCn1nnc2c1C(COC)CN(C(=O)Cc1cccs1)C2` (centres undefined), the cytotoxicity at 70.5 h was -7.34%.

Consider `COc1ccc2[nH]cc(C(=O)CNc3nc(C)cs3)c2c1`, for which the cytotoxicity at 70.5 h is 6.66%.

Consider `CCCc1n[nH]c(C2CN(CCCS(C)(=O)=O)CCO2)n1` (centres undefined), for which the cytotoxicity at 70.5 h is -4.54%.

Consider `CN1CCC(Cc2cncc(-c3ccccc3C(=O)O)n2)C1` (centres undefined), for which the cytotoxicity at 70.5 h is -6.47%.

Consider `COCCN1CCC12CCN(c1ncccn1)C2` (centres undefined), for which the cytotoxicity at 70.5 h was -5.32%.

For `CN(Cc1noc(C2CC2)n1)C1CCCN(c2cccnn2)C1` (centres undefined), the cytotoxicity at 70.5 h worked out at 0.945%.

Consider `O=C(NCC(F)F)c1ccc(S(=O)(=O)NCCc2cn[nH]c2)cc1`, for which the cytotoxicity at 70.5 h was -8.61%.

Regarding `N#Cc1ccc(N2CCC(c3nc(C(F)(F)F)c[nH]3)CC2)nc1`, the cytotoxicity at 70.5 h was -11.5%.

Take `Cc1nc(CO[C@@H]2CN(Cc3cnn(C)c3)[C@@H]3COC[C@@H]32)cs1`: the cytotoxicity at 70.5 h was 5.43%.

`COc1cccc(CNc2ccc(F)c(Cl)c2)c1O`: the cytotoxicity at 70.5 h was -4.8%.

In the case of `CN(C)CC(=O)NC1CC(=O)N(CCc2ccccc2)C1` (centres undefined), the cytotoxicity at 70.5 h is -4.7%.

Take `Cc1noc(C)c1CN1C(=O)[C@H]2CC[C@@H]1CN(Cc1cscn1)C2`: the cytotoxicity at 70.5 h is -6.64%.

On to `Cc1cccc(CN2CCc3onc(CO)c3C2)n1`, for which the cytotoxicity at 70.5 h is 5.71%.

For `CC(C)N1CCCC1c1nc(N(C)C)ncc1I` (centres undefined), the cytotoxicity at 70.5 h is -4.13%.

For `Cc1cnc(NC(=O)NC(CCO)c2cccs2)s1` (centres undefined), the cytotoxicity at 70.5 h is -3.17%.

With `O=S1(=O)CCC(n2cc(C3=CCN(CCc4ccccc4)CC3)cn2)C1` (centres undefined), the cytotoxicity at 70.5 h was -2.15%.

With `Cc1cc(C(=O)N2CCNC(=O)C2)c(C)n1CC(F)(F)F`, the cytotoxicity at 70.5 h came to 26.8%.

For the compound `CN1CC2(CCN(CCOCCO)CC2)CC(c2ccccc2)C1=O` (centres undefined), the cytotoxicity at 70.5 h was 29.9%.

`CC(=O)c1ccc(F)cc1-c1cc(NCCO)nc2[nH]ccc12`: the cytotoxicity at 70.5 h is -0.208%.

Turning to `CN(Cc1cccc2ncccc12)C(=O)CCC(F)(F)F`, the cytotoxicity at 70.5 h was 27.3%.

Consider `Cc1ccc(O)c(C(=O)N2CCCC(NC(=O)C(C)C)C2)c1` (centres undefined), for which the cytotoxicity at 70.5 h is -6.92%.

As for `CCN(CC)CCNC(=O)c1cnc(-c2ccccc2)nc1`, the cytotoxicity at 70.5 h was -7.78%.

With `Cc1cc(Cc2ccccc2C)cc(C2CCCNC2)n1` (centres undefined), the cytotoxicity at 70.5 h was -4.93%.

With `COc1cccc([C@H]2CN(CCCS(=O)(=O)N(C)C)C[C@@H]2N)c1`, the cytotoxicity at 70.5 h is -3.42%.

For `COc1cc(CNC(=O)c2c(C)noc2C(C)C)ccn1`, the cytotoxicity at 70.5 h is -2.32%.

Consider `CN(Cc1ccc(-n2cccn2)cc1)C[C@@H]1CCCN2CCCC[C@H]12`, for which the cytotoxicity at 70.5 h came to 24.9%.

Turning to `COc1cc(N2C[C@@H]3COC[C@]3(COCc3cccc(C)n3)C2)ncn1`, the cytotoxicity at 70.5 h was -0.577%.

With `Cc1nc(N2CCN(S(C)(=O)=O)CC2)cc(-n2cnc(C)c2C)n1`, the cytotoxicity at 70.5 h was -3.21%.

As for `CCN1CCC2(CC1)CC(NC(=O)c1c[nH]cn1)c1ccccc1O2` (centres undefined), the cytotoxicity at 70.5 h is -6.71%.

On to `CN(CC1CC1)C(=O)c1cc2c(c(S(N)(=O)=O)c1)CCC2`, for which the cytotoxicity at 70.5 h worked out at 2.25%.

Take `CS(=O)(=O)N1CCc2sc(C(=O)NCc3ccncc3)cc21`: the cytotoxicity at 70.5 h is -7.65%.

As to `CCOc1ncccc1NC(=O)N1CCC(n2cncn2)CC1`, the cytotoxicity at 70.5 h is -8.07%.

As for `Cc1nc2c(c(N3CCCC(CO)C3)n1)CCN(Cc1ccco1)CC2` (centres undefined), the cytotoxicity at 70.5 h was determined as 16.9%.

On to `CN1C[C@H](NC(=O)c2cscn2)[C@@H]2OCCC[C@@H]21`, for which the cytotoxicity at 70.5 h was -6.86%.

For the compound `Cc1ccc(S(=O)(=O)Nc2c(C)nc(N3CCCC3)nc2C)cc1`, the cytotoxicity at 70.5 h was -2.23%.

For the compound `CN1CCN(C[C@@H]2OC[C@H]3CN(Cc4ccncc4)CC[C@H]32)CC1`, the cytotoxicity at 70.5 h turned out to be 0.409%.

Regarding `O=C(NCCc1cccc(F)c1)c1nc2c(s1)CCCN2C(=O)C1CC1`, the cytotoxicity at 70.5 h is -5.89%.

As to `Cc1cccc(CN2CCS(=O)(=O)[C@@H]3CCN(S(C)(=O)=O)CC[C@@H]32)n1`, the cytotoxicity at 70.5 h was 17.2%.

Consider `CC(C)Cn1cncc1CNC(=O)c1cccc(-n2cnnc2)c1`, for which the cytotoxicity at 70.5 h turned out to be 8.85%.

Regarding `CCOCC(=O)N1CCC(Oc2ccc(C(F)(F)F)cn2)CC1`, the cytotoxicity at 70.5 h is -4.36%.

For `O=C(NCCC(=O)N1CCCC1)C(OC1CCCC1)c1ccccc1` (centres undefined), the cytotoxicity at 70.5 h was found to be 34.3%.

Turning to `O=C(CNCCn1cccn1)NCC1(c2ccccc2)CC1`, the cytotoxicity at 70.5 h is -4.79%.

Take `CCCc1n[nH]c(=O)n1Cc1ccccc1F`: the cytotoxicity at 70.5 h was found to be 2.4%.

For the compound `CC(C)Oc1cccc(CNC(=O)NC2(CO)CCCC2)c1`, the cytotoxicity at 70.5 h is -11.2%.

On to `COc1ccc(-c2cc(CC3(NCc4ccc(C)o4)COC3)no2)cc1`, for which the cytotoxicity at 70.5 h was found to be 6.13%.

As for `O=C(NCc1ccccc1)NCc1nc(-c2ccncc2)n[nH]1`, the cytotoxicity at 70.5 h was -3.14%.

Take `CCn1c(C2CCCN(C(=O)C(C)(C)OC)C2)nn(CCN(C)C)c1=O` (centres undefined): the cytotoxicity at 70.5 h is -1.55%.

On to `N#Cc1cccnc1OC1CCN(S(=O)(=O)c2ccc(F)c(Cl)c2)CC1`, for which the cytotoxicity at 70.5 h was -14.2%.

For `COc1cccc(C(c2c(C)n[nH]c2O)c2c(C)n[nH]c2O)c1OC`, the cytotoxicity at 70.5 h was -11.7%.

`CC(C)C(O)CNC(=O)Nc1cnn(C(C)C)c1` (centres undefined): the cytotoxicity at 70.5 h is -8.43%.

For the compound `CC(C)N1CCC(CC(=O)N2CCC(C(O)c3nccn3C)CC2)CC1` (centres undefined), the cytotoxicity at 70.5 h is -3.4%.

As for `O=C(NCCCOCC1CCCO1)c1cccnc1N1CCCC1` (centres undefined), the cytotoxicity at 70.5 h was 1.79%.

In the case of `CCC(C)N(Cc1cccnc1)C(=O)c1ncccc1O` (centres undefined), the cytotoxicity at 70.5 h was -8.41%.

For `CN1[C@H]2CC[C@@H]1CN(C(=O)c1nnc3n1CCCC3)CC2`, the cytotoxicity at 70.5 h stood at 12.6%.

For the compound `COCCN(CC1CCCN(C2Cc3ccccc3C2)C1)C(=O)CO` (centres undefined), the cytotoxicity at 70.5 h was -10%.

As for `CNC(=O)c1cccc(CN2CCN(C3=NCC(C)(C)S3)CC2)c1`, the cytotoxicity at 70.5 h was -5.92%.

In the case of `COCCN1C(=O)c2ccc(C(=O)NCCc3c[nH]cn3)cc2C1=O`, the cytotoxicity at 70.5 h is -5.32%.

As for `CC(C)(C)OC(=O)NC(C)(C(N)=O)c1cccc(Cl)c1` (centres undefined), the cytotoxicity at 70.5 h came out at 25.4%.

For the compound `O=C(CN(CC(O)c1ccc(F)cc1)C1CC1)Nc1cccnc1` (centres undefined), the cytotoxicity at 70.5 h is -24.7%.

Regarding `Cc1ccn(-c2ccccc2NCc2cccnc2C)n1`, the cytotoxicity at 70.5 h was -7.82%.

For the compound `CC(CN1CCOCC1)n1cncc1-c1ccc2c(c1)CCCN2C` (centres undefined), the cytotoxicity at 70.5 h was -10.1%.

Turning to `O=C(O)c1c(-c2cncnc2)ncc2c1CCN(Cc1cccnc1)C2`, the cytotoxicity at 70.5 h is 2.19%.

As for `CCC(=O)N1CCC(c2nc3ccc(NC(C)C)cn3n2)CC1`, the cytotoxicity at 70.5 h was determined as 4.46%.

Turning to `CCn1ccnc1CN1CCN(CCOc2ccccc2C#N)CC1`, the cytotoxicity at 70.5 h is -19.6%.

For `CC(c1ccccc1F)N(CC(N)=O)C1CC1` (centres undefined), the cytotoxicity at 70.5 h is -4.03%.

Regarding `CC(C)CCN1CC2(CCCN(C(=O)CNC(=O)N(C)C)C2)CCC1=O` (centres undefined), the cytotoxicity at 70.5 h was -10.1%.

Turning to `CCNC(=O)C1CCN(Cc2ccc(C(=O)Nc3nnc(C)s3)cc2)C1` (centres undefined), the cytotoxicity at 70.5 h is 26.3%.

In the case of `CC[C@H](C)[C@H](NC(=O)Cn1ccc2ccc(F)cc21)C(=O)OC`, the cytotoxicity at 70.5 h was -1.27%.

On to `Cc1nc(C)c(CC(=O)N2C[C@@H](C(=O)O)[C@H](c3ccncc3)C2)s1`, for which the cytotoxicity at 70.5 h is -0.442%.
